Experiment [1] concerns primary mouse CD4+ T cells. As to the kind of experiment: MTS proliferation assay. It is filed as cell-based. As to the method: Compounds A-D were tested to determine whether they could inhibit TGF-β signaling in primary mouse CD4^+ T cells.
Primary mouse CD4^+ T cells were isolated from the spleens of C57/B6 mice using the RoboSep™ cell isolation system (Stemcell Technologies). 0.5 μg/ml of hamster anti-mouse CD3e antibody (145-2C11; eBioscience) was coated onto a 96 well flat bottom plate overnight. 1×10^5 purified CD4^+ T cells were incubated with 1 μg/ml soluble hamster anti-mouse CD28 antibody (37.51, BD Biosciences), 1 nM TGF-β1 and 8-fold serial dilutions of Compounds A-D. After 72 hours, cell proliferation was measured using an MTS assay (Promega) in accordance with the manufacturer's instructions.

In experiment [2] the test system is TGF-β-induced luciferase activity in HEK293T cells. The experiment in a line: TGF-β-induced SMAD luciferase reporter assay in HEK293T cells. It is filed as cell-based, human. The settings on record: HEK-293T. As to the method: Compounds A-D were tested to determine whether they could inhibit TGF-β-induced luciferase activity in HEK293T cells in vitro.
30,000 HEK293T cells were seeded in a 96 well white flat bottom plate overnight. The next day 100 ng of a SMAD luciferase reporter plasmid per well was transfected into the cells using lipofectamine for 24 hours. The next day cells were treated with Compounds A-D and 100 pM TGFβ for 24 hours. Luciferase activity was measured using the Dual-Glo® luciferase assay kit (Promega). The assay was run twice for Compounds A, B, and D, and three times for Compound C.

The target in experiment [3] is T1, ALK5 (Homo sapiens, UniProt P36897).
T1 sequence (P36897 34-503): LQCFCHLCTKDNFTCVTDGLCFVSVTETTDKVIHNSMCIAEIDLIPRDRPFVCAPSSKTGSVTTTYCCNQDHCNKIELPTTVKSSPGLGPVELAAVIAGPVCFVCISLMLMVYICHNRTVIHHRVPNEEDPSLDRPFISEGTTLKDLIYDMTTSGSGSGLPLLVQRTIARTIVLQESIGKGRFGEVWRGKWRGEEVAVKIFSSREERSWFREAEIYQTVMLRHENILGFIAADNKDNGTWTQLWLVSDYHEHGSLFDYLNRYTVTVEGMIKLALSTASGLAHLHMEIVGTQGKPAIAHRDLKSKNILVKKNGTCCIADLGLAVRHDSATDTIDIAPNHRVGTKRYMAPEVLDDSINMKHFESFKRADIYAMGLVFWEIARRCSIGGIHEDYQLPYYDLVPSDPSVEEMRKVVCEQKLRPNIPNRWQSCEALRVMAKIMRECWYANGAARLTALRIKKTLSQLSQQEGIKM
The experiment in a line: recombinant kinase assays. In kind it is biochemical. From the text: Compound N was compared to Compound C in a number of in vitro assays.

Setting [4] is: Kinase = 1.5 nM, read-out: IC50 (nM) (Kinase = 1.5 nM).
Setting [5] is: Kinase = 25 nM, read-out: IC50 (nM) (Kinase = 25 nM).
Setting [6] is: Morrison equat/ 5 uM ATP, read-out: Ki (nM) (Morrison equat/ 5 uM ATP).
The mark [7] stands for this setting: Steady state equation, read-out: Ki (nM) (Steady state equation).

Each structure is given as a SMILES string. Like-named read-outs stand apart in the source and are kept apart here.

Turning to `Cc1cccc(-c2nc(N)sc2-c2ccc3ncccc3n2)n1` [Compound A, 4-(6-methylpyridin-2-yl)-5-(1,5-naphthyridin-2-yl)thiazol-2-amine], in experiment [1] (1 nM TGF-β1, 72 hours), the “effect on TGFβ-mediated inhibition of T cell proliferation” value (“effect on TGFβ-mediated inhibition” below) is given as “did not show consistent effects” and the “Experiment 1 IC50 (nM)” value was “Value not obtained”.

In the case of `CNCCOc1ccc(-c2cc(-c3c[nH]nc3-c3ccccn3)ccn2)cc1` [Compound B, N-methyl-2-(4-(4-(3-(pyridin-2-yl)-1H-pyrazol-4-yl)pyridin-2-yl)phenoxy)ethan-1-amine], the “effect on TGFβ-mediated inhibition” value in experiment [1] (1 nM TGF-β1, 72 hours) was “reversed TGFβ-mediated inhibition of T cell proliferation”.

Consider `CNCCOc1ccc(-c2cc(-c3c[nH]nc3-c3cccc(C)n3)ccn2)cc1` [Compound C, N-methyl-2-(4-(4-(3-(6-methylpyridin-2-yl)-1H-pyrazol-4-yl)pyridin-2-yl)phenoxy)ethan-1-amine], for which the IC50 in experiment [2] (summary value, human HEK cells, read-out: HEK Luciferase Assay) was 11.7 nM; in experiment [2] (Homo sapiens, Experiment 1, 100 pM TGFβ, 24 hours, read-out: Experiment 1 IC50), 10.1 nM; in experiment [1] (CD4+ T, summary value, mouse T cells, read-out: Mouse T cell proliferation assay) it was 26 nM; in experiment [3] (setting [4]), 1.8 nM; in experiment [3] (setting [5]), 10 nM. For the same compound, the “effect on TGFβ-mediated inhibition” value in experiment [1] (1 nM TGF-β1, 72 hours) was “reversed TGFβ-mediated inhibition of T cell proliferation”. The “fold more potent than Compound N in the recombinant assays” value in experiment [3] turned out to be 10 fold. Besides, the results for the Ki in experiment [3] (setting [6]) and in experiment [3] (setting [7]) were 0.11 nM and 2.25 nM, respectively.

With `CCNC(=O)c1ccc2c(c1)NC(=O)/C2=C(\Nc1ccc(N(CCNC)S(C)(=O)=O)cc1)c1ccccc1` [Compound D, (Z)-N-ethyl-3-(((4-(N-(2-(methylamino)ethyl)methylsulfonamido)phenyl)amino)(phenyl)methylene)-2-oxoindoline-6-carboxamide], in experiment [1] (1 nM TGF-β1, 72 hours), the “effect on TGFβ-mediated inhibition” value is reported as “not obtained” and the “Experiment 1 IC50 (nM)” value is listed as “Value not obtained”. Moreover, the “Experiment 2 IC50 (nM)” value in experiment [1] (Experiment 2, 1 nM TGF-β1, 72 hours) was “Value not obtained”.

Regarding `CCc1cc(-c2ccc3ncnc(N)c3c2)n(-c2cccc(C)n2)n1` [Compound N], the IC50 in experiment [3] (setting [4]) worked out at 12 nM; in experiment [3] (setting [5]), 18 nM. Further, the figures for the Ki in experiment [3] (setting [6]) and in experiment [3] (setting [7]) were 2.1 nM and 18.4 nM, respectively.

For the origin of these results see patent publication US20210299268A1, “ANTIBODY-ALK5 INHIBITOR CONJUGATES AND THEIR USES” (Synthis Therapeutics, Inc., priority 2018, published 2021).
